According to patent US4590191A, “Soporific containing lorazepam” (Medichemie AG, priority 1984, dated 1986):
Read-outs that look alike come from different tables or passages of the source.

What was measured:
[1] = Acute oral toxicity (lethality) in mice; conditions: mouse, in vivo, po
Excerpt: (§1) and of the combined preparation of 25 parts by weight
Doses in mg/kg Body Weight

[2] = cited from earlier work
white mice = assay: Acute oral toxicity (lethality) in mice; conditions: oral, mice
Excerpt: as §1
Doses in mg/kg Body Weight

Compound | LD50 [1] [mg/kg] | hypnotic or soporific effect (in words) ([2]; 1 mg) | side effects (in words) ([2]; 2 to 3 mg, in individual cases) | half-life (in words) ([2]; in vivo) | ratio between effect and tolerance (in words) ([2]; single dose of 1 mg) | side effects (in words) ([2]; somewhat higher doses, may occur in the next few days) | DL 95 (white mice) [mg/kg]
O=C1Nc2ccc(Cl)cc2C(c2ccccc2Cl)=NC1O (stereo not shown) [lorazepam, 7-chlor-5-(2-chlorphenyl)-1,3-dihydro-3-hydroxy-2H-1,4 benzodiazepin-2-on] | 3180 | often insufficient | subjectively unpleasant side effects can occur | medium half-life | especially good ratio between effect and tolerance | relatively strong side effects, such as muscle relaxation, ataxia and sedative after-effects | 
CN(C)CCOC(c1ccccc1)c1ccccc1 [diphenhydramine, 2-(diphenyl-methoxy)-N,N-dimethyl ethanamine] |  |  |  |  |  |  | 645
